Experimental data published in patent publication US7423015B1, “Antihelminthic drugs as a treatment for hyperproliferative diseases” (Board of Regents, The University of Texas System, priority 2001, dated 2008).

Legend:
[1] = system: H460 NSCLC cells; assay: Cell cycle profiles by FACS, MZ and vinorelbine; format: cell-based, human
Protocol: FIG. 10. MZ Enhances activity of anti-mictotic drugs in H460 NSCLC cells. H460 cells were treated with low dose of MZ or Vinorelbine. Cell cycle profiles indicating G1/S G2-Mphases were analyzed by FACS.
The doses of MZ and vinorelbine were chosen to be “sub-therapeutic”. […] Thus, in H460 NSCLC cells mebendazole enhances the activity of anti-mitotic drugs.

[2] = system: p21/WAF1 transcript; assay: Northern blot analysis in H460 cells; format: cell-based, human; conditions: at the time the p53 level peaked
Protocol: (§1) Total RNA was isolated from the subconfluent cultures using the guanidinium thisocyanate method (Lacey, 1988). After this 20 μg of the RNA was electrophoresed in a denaturing 1.2% agarose/morpholinepropanesulfonic acid (MOPS)-formaldehyde gel, transferred onto a nitrocellulose membrane, and hybridized to a ^32P-radiolabeled p53 cDNA probe, as described elsewhere (Lubiga and Prichard, 1990). The ^32P-labeled probes were generated using random primers (>8×10^8 cpm/μg). Blots were washed at 65° C. in 2× standard saline citrate (SSC) for 30 min and then washed twice at 60° C. in 0.1% sodium dodecyl sulfate (SDS) and 0.1×SSC. The cDNA probes used were 1.2-kb human p53 cDNA and an 800-bp fragment of human p21 cDNA.
(§2) Cell extracts were prepared from H460 cells exposed to 0.05 μg/ml FZ or MZ for various durations (1 to 24 hr). The effect of FZ and MZ on the nuclear accumulation of p53 appeared to be gradual and was not significant within the first hour of exposure. […] The appearance of p53 in response to drug treatment also coincided with the initiation of apoptosis, which was detectable by 24 hr, as well as shown earlier by TdT FACS analysis. […] Total RNA was extracted and […] was used for the analysis. p53 protein was detected by immunoblot analysis.

[3] = system: p53 mRNA; assay: Northern blot analysis in H460 cells; format: cell-based, human; conditions: 0.05 μg/ml, 24 hr
Protocol: as §1, §2

[4] = system: H322; assay: Cell viability, trypan blue cell count assay; format: cell-based; parameters: dose or concentration left out as unconfirmed; conditions: Homo sapiens, NCI-H322, read-out: % Cell Viability
Protocol: (§3) All cell lines were grown in RPMI 1640 medium supplemented with 5% fetal bovine serum and 5% CO2. All experiments were done when the cells were 70% confluent. For cell growth measurements, 5×10^4 cells were plated in each well of six-well plates. Control and BZ-treated (0.05 μg/ml) cells were trypsinized and counted using a hemocytometer. Experiments were done in triplicate and the mean and standard deviation were determined by standard methods.
(§4) To further investigate the relationship between the induction of functional p53 and the subsequent apoptosis mediated by these drugs, the inventors posited that if BZs require wild-type p53 in order to exert their effect, then fenbendazole and mebendazole would not be cytotoxic to the many tumor lines producing a mutated p53 protein. To investigate this possibility, human cell lines derived from NSCLC origins of differing p53 status were further analyzed by a 5-day cell growth assay. The cells were plated onto a six-well plate, and the viability of the cells was determined by trypan blue exclusion. Cells were counted on a hemocytometer. The values shown are the means ±standard deviation of triplicate samples. Duplicate experiments gave similar results. H322 is a human lung adenocarcinoma line that produces a mutant p53 protein. […] However, fenbendazole and mebendazole induced nuclear accumulation of p53 only in the H460 cell line, which carries wild-type p53 genes. […] Cells were exposed to FZ (filled bar) or MZ (hatched bar) for 24 hr. A concentration of 0.05 μg/ml FZ and MZ was used. An immunoblot analysis of nuclear p53 was also performed to determine whether these drugs induced the production of p53. Equal amounts of protein extracts from each cell line before and after treatment were used for this analysis.

[5] = system: SW480; assay: Cell viability, trypan blue cell count assay; format: cell-based; parameters: dose or concentration left out as unconfirmed; conditions: Homo sapiens, SW480, read-out: % Cell Viability
Protocol: as §3, §4

[6] = system: MDA 231; assay: Cell viability, trypan blue cell count assay; format: cell-based; parameters: dose or concentration left out as unconfirmed; conditions: Homo sapiens, MDA-MB-231, read-out: % Cell Viability
Protocol: as §3, §4

[7] = system: RD; assay: Cell viability, trypan blue cell count assay; format: cell-based; parameters: dose or concentration left out as unconfirmed; conditions: Homo sapiens, read-out: % Cell Viability
Protocol: as §3, §4

[8] = system: p53, p21, MDM2, Bcl-2, Cyclin A, Cyclin D, Cdc 2, Bcl-XL, Bax, Rb and Cdk-2; assay: Western blot of proteins of apoptotic pathways in H460 whole-cell extracts; format: cell-based, human; conditions: 0.05 μg/ml for 24 hr
Protocol: Cells were grown in 6-cm dishes, cultured, and treated as described above. To prepare the whole-cell lysates, the medium was removed and cells were washed twice with ice-cold Tris-buffered saline (TBS) (150 mM NaCl, 10 mM Tris; pH 7.6) and lysed with 0.5 ml of lysis buffer (10 mM Tris, 150 mM NaCl, 1% Triton X-100, 5 mM EDTA, 25 mM glycerphosphate, 1 mM phenylmethylsulphonyl fluoride (PMSF), 2 mM benzamidine, […], and 1 mM sodium orthovanadate) for 15 min. The lysed cells were then transferred to 1.5 ml microtubes, centrifuged at 15,000×g for 10 min at 4° C., and the supernatants collected mixed with Laemmli's sample buffer and subjected to western blot analysis as described elsewhere (Nare et al., 1994). Blots were probed with anti-p53 monoclonal antibody Bp53-12 (Santa Cruz Biotechnology, Inc.) and the immunocomplex was detected by the Enhanced Chemiluminescence kit according to the manufacturer's directions (Amersham).
To rule out the possibility that FZ and MZ have an effect on other proteins known to have a role in various apoptotic pathways, the inventors evaluated the effect of these drugs on a panel of such proteins. […] Specifically, the levels of these proteins were evaluated by Western blot analyses before and after exposure to 0.05 μg/ml FZ or MZ for 24 hr using whole-cell extracts. […] The protein level of the phosphorylated form of Rb also remained unchanged after treatment.

SMILES	apoptosis (sub-G0 cells) under combination of MZ and vinorelbine ([1]; 24-48 hr cultures)	interaction of MZ combined with Vinorelbine ([1]; low doses of both drugs)	apoptosis under monotherapy ([1]; sub-therapeutic low dose)	level of the p21/WAF1 transcript [2]	p53 mRNA levels [3]	viability [4] [%]	viability [5] [%]	viability [6] [%]	viability [7] [%]	levels of Bcl-2, Cyclin A, Cyclin D, Cdc 2, Bcl-XL, Bax, Rb and Cdk-2 [8]	levels of nuclear p53, p21 and MDM2 [8]
COC(=O)Nc1nc2ccc(C(=O)c3ccccc3)cc2[nH]1 [Mebendazole, Methyl 5-benzoylbenzimidazole-2-carbamate]	pronounced apoptosis	synergistic interaction	No apoptosis	significantly increased	no significant changes	68.5 ± 3.7	63.6 ± 13.3	66.2 ± 15.8	72.2 ± 2.8	no changes	enhanced
COC(=O)Nc1nc2ccc(Sc3ccccc3)cc2[nH]1 [Fenbendazole, methy 5-(phenylthio)-2-benzimidazole-2-carbamate]				significantly increased	no significant changes	65.9 ± 4.9	70.6 ± 7.6	65.3 ± 5	78.7 ± 12	no changes	enhanced
